Usually Ki stands for a dissociation constant, usually derived from enzyme kinetics or from competition with a known ligand. As a reminder, the EC50 is the concentration giving half of the maximal effect.

We go through five compounds from US12252524B2, “GIP/GLP1 co-agonist compounds” (Eli Lilly and Company, priority 2018, dated 2025).

Numbered stars: 1 amine (or outer) side, 2 acyl side, 3 side chain; on linkers, the order of the positions; unused ones are H or OH. Square brackets hold non-standard residues; d marks the D form. Side chains are listed from the residue outwards. Peptide text beside a SMILES is read from it. * marks the point of attachment. C18 diacid = O=C(O)CCCCCCCCCCCCCCCCC(=O)*; αMePhe(2-F) = C[C@](N)(Cc1ccccc1F)C(=O)O; γGlu = O=C(O)[C@H](CCC(=O)[*:2])N[*:1]; αMeF = C[C@](N)(Cc1ccccc1)C(=O)O; AEEA = NCCOCCOCC(=O)O; Aib = CC(C)(N)C(=O)O

One assay addresses human GLP-1R (Homo sapiens, UniProt P43220). In words: [125I]-GLP-1 binding (SPA), human GLP-1 receptor. Also noted: expressed in transfected cells; crude membranes. The settings on record: read-out: hGLP1R Ki, (nM) (SEM, n). In short, it runs like this:
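Frozen cell pellets are lysed on ice in hypotonic Tris buffer, pH 7.5, homogenized, and centrifuged to a membrane pellet resuspended at about 1 to 3 mg/mL. Binding is then measured in HEPES-based buffer at pH 7.4, and curves are fitted to give IC50 and Ki.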

Assay [1] deals with T1, gastric inhibitory peptide receptor (GIPR) (Homo sapiens, UniProt P48546).
T1 sequence (P48546 22-466): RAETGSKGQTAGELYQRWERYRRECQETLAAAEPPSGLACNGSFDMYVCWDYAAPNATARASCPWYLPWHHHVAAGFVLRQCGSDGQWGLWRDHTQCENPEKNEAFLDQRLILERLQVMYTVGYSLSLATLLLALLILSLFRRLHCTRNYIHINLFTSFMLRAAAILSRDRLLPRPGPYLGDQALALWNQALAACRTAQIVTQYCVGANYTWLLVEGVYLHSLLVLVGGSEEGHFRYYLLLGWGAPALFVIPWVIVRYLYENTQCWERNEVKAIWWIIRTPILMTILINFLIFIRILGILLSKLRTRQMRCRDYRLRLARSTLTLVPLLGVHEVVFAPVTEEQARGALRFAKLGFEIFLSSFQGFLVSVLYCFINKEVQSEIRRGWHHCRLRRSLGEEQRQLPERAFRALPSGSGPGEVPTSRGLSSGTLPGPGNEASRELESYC
In words: cAMP pharmacological functional assay in presence of casein, hGIPR. The class given is cell-based. The settings on record: HEK293 cells expressing hGIPR, 0.1% Casein, geometric mean; read-out: hGIPR cAMP Rel EC50 nM (SEM, n).

The target in assay [2] is human GLP-1 receptor (GLP-1R) (Homo sapiens, UniProt P43220). The experiment in a line: cAMP pharmacological functional assay in presence of casein, hGLP-1R. It counts as cell-based. The conditions noted are these: HEK293 cells expressing hGLP-1R, 0.1% Casein, geometric mean; read-out: hGLP1R cAMP Rel EC50 nM (SEM, n).
human GLP-1 receptor (GLP-1R), sequence (P43220 24-463): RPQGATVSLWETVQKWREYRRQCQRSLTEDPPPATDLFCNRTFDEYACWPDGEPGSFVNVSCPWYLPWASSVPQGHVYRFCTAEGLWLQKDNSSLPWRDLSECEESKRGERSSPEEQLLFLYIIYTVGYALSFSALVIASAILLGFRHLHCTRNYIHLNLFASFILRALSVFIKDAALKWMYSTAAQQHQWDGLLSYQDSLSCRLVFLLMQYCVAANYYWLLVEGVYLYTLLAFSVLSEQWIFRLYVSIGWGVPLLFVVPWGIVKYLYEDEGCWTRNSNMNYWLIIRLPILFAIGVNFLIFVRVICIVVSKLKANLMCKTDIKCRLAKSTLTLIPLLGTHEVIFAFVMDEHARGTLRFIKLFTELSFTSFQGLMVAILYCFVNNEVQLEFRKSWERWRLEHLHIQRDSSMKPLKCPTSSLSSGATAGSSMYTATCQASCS
The next assay concerns the target T2, human Gcg receptor (Homo sapiens, UniProt P47871).
T2 construct: expressed in transfected cells; crude membranes
In words: [125I]-Glucagon binding (SPA), human Gcg receptor. The settings on record: read-out: hGLcgR Ki, nM (SEM, n). The method, boiled down: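 Scintillation counts are taken after membranes and WGA beads incubate and settle for 12 hours at room temperature. Buffer is 25 mM HEPES, pH 7.4, with CaCl2, MgCl2, bacitracin and Tween-20. Ki values, from four-parameter IC50 fits, are geometric means over independent days.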

Another assay has as its target T3, human GIP receptor (Homo sapiens, UniProt P48546).
T3 construct: expressed in transfected cells; crude membranes
T3 sequence (P48546 22-466): T1 sequence (P48546 22-466)
In words: [125I]-GIP binding (SPA), human GIP receptor. The conditions noted are these: read-out: hGIPR Ki, nM (SEM, n).

T2 sequence (P47871 26-477): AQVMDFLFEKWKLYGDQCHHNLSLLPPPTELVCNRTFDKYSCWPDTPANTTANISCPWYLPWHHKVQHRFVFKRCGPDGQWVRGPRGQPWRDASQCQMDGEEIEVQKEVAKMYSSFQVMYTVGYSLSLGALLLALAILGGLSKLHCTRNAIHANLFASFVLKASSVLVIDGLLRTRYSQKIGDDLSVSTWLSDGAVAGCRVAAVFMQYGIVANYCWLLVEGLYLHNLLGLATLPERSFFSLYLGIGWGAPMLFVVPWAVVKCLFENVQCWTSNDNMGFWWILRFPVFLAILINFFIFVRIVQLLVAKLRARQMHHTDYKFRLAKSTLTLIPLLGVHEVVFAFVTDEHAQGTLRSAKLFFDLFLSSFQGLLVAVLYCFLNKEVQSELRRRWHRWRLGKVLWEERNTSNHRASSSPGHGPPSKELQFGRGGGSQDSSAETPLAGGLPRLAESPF
human GLP-1R, sequence (P43220 24-463): as the sequence (P43220 24-463) above

Regarding `CC[C@H](C)[C@H](NC(=O)[C@H](CC(C)C)NC(=O)[C@H](Cc1ccc(O)cc1)NC(=O)[C@H](CCC(=O)O)NC(=O)[C@@H](NC(=O)[C@H](Cc1ccccc1)NC(=O)[C@H](CCC(=O)O)NC(=O)C(C)(C)NC(=O)[C@H](CCC(N)=O)NC(=O)[C@H](C)NC(=O)[C@H](CCCCNC(=O)COCCOCCNC(=O)COCCOCCNC(=O)CC[C@H](NC(=O)CCCCCCCCCCCCCCCCC(=O)O)C(=O)O)NC(=O)[C@H](CCCCN)NC(=O)[C@H](CC(=O)O)NC(=O)[C@H](CC(C)C)NC(=O)[C@H](CC(C)C)NC(=O)[C@@H](NC(=O)[C@H](CO)NC(=O)[C@H](Cc1ccc(O)cc1)NC(=O)[C@H](CC(=O)O)NC(=O)[C@H](CO)NC(=O)[C@@H](NC(=O)[C@](C)(Cc1ccccc1)NC(=O)[C@@H](NC(=O)CNC(=O)[C@H](CCC(=O)O)NC(=O)C(C)(C)NC(=O)[C@@H](N)Cc1ccc(O)cc1)[C@@H](C)O)[C@@H](C)O)[C@@H](C)CC)[C@@H](C)CC)C(=O)N[C@@H](C)C(=O)NCC(=O)NCC(=O)N1CCC[C@H]1C(=O)N[C@@H](CO)C(=O)N[C@@H](CO)C(=O)NCC(N)=O` [Example 310] (H-Y[Aib]EGT[αMeF]TSDYSILLDKK([AEEA-AEEA-γGlu-C18 diacid])AQ[Aib]EFIEYLIAGGPSSG-NH2; N-terminus assumed), the Ki at human GLP-1R amounted to 1.7 nM; on human Gcg receptor, 174 nM; at human GIP receptor, 0.0315 nM. For the same compound, the values for the EC50 in assay [1] and in assay [2] were 0.0176 nM and 0.0283 nM, respectively.

On to `CC[C@H](C)[C@H](NC(=O)[C@H](CC(C)C)NC(=O)[C@H](Cc1ccc(O)cc1)NC(=O)[C@H](CCC(=O)O)NC(=O)[C@@H](NC(=O)[C@H](Cc1ccccc1)NC(=O)[C@H](C)NC(=O)C(C)(C)NC(=O)[C@H](CCC(N)=O)NC(=O)[C@H](C)NC(=O)[C@H](CCCCNC(=O)COCCOCCNC(=O)COCCOCCNC(=O)CC[C@H](NC(=O)CCCCCCCCCCCCCCCCC(=O)O)C(=O)O)NC(=O)[C@H](CCC(=O)O)NC(=O)[C@H](CC(=O)O)NC(=O)[C@H](CC(C)C)NC(=O)[C@H](CC(C)C)NC(=O)[C@@H](NC(=O)[C@H](CO)NC(=O)[C@H](Cc1ccc(O)cc1)NC(=O)[C@H](CC(=O)O)NC(=O)[C@H](CO)NC(=O)[C@@H](NC(=O)[C@](C)(Cc1ccccc1F)NC(=O)[C@@H](NC(=O)CNC(=O)[C@H](CCC(=O)O)NC(=O)C(C)(C)NC(=O)[C@@H](N)Cc1ccc(O)cc1)[C@@H](C)O)[C@@H](C)O)[C@@H](C)CC)[C@@H](C)CC)C(=O)N[C@@H](CCC(=O)O)C(=O)NCC(=O)NCC(=O)N1CCC[C@H]1C(=O)N[C@@H](CO)C(=O)N[C@@H](CO)C(=O)NCC(N)=O` [Example 311] (H-Y[Aib]EGT[αMePhe(2-F)]TSDYSILLDEK([AEEA-AEEA-γGlu-C18 diacid])AQ[Aib]AFIEYLIEGGPSSG-NH2), for which the Ki at human GLP-1R is 11.5 nM; on human Gcg receptor, 115 nM; on human GIP receptor, 0.0497 nM. The EC50 in assay [1] worked out at 0.0334 nM; in assay [2] it was 0.0393 nM.

On to `CC[C@H](C)[C@H](NC(=O)[C@H](CC(C)C)NC(=O)[C@H](Cc1ccc(O)cc1)NC(=O)[C@H](CCC(=O)O)NC(=O)[C@@H](NC(=O)[C@H](Cc1ccccc1)NC(=O)[C@H](CCC(=O)O)NC(=O)C(C)(C)NC(=O)[C@H](CCC(N)=O)NC(=O)[C@H](C)NC(=O)[C@H](CCCCNC(=O)COCCOCCNC(=O)COCCOCCNC(=O)CC[C@H](NC(=O)CCCCCCCCCCCCCCCCC(=O)O)C(=O)O)NC(=O)[C@H](CCCCN)NC(=O)[C@H](CC(=O)O)NC(=O)[C@H](CC(C)C)NC(=O)[C@H](CC(C)C)NC(=O)[C@@H](NC(=O)[C@H](CO)NC(=O)[C@H](Cc1ccc(O)cc1)NC(=O)[C@H](CC(=O)O)NC(=O)[C@H](CO)NC(=O)[C@@H](NC(=O)[C@](C)(Cc1ccccc1F)NC(=O)[C@@H](NC(=O)CNC(=O)[C@H](CCC(=O)O)NC(=O)C(C)(C)NC(=O)[C@@H](N)Cc1ccc(O)cc1)[C@@H](C)O)[C@@H](C)O)[C@@H](C)CC)[C@@H](C)CC)C(=O)N[C@@H](CCC(=O)O)C(=O)NCC(=O)NCC(=O)N1CCC[C@H]1C(=O)N[C@@H](CO)C(=O)N[C@@H](CO)C(=O)NCC(N)=O` [Example 312] (H-Y[Aib]EGT[αMePhe(2-F)]TSDYSILLDKK([AEEA-AEEA-γGlu-C18 diacid])AQ[Aib]EFIEYLIEGGPSSG-NH2), for which the Ki came out at 1.63 nM on human GLP-1R, 106 nM at human Gcg receptor and 0.0348 nM on human GIP receptor. Moreover, the EC50 in assay [1] is 0.0207 nM; in assay [2], 0.0262 nM.

Regarding `CC[C@H](C)[C@H](NC(=O)[C@H](CC(C)C)NC(=O)[C@H](Cc1ccc(O)cc1)NC(=O)[C@H](CCC(=O)O)NC(=O)[C@@H](NC(=O)[C@H](Cc1ccccc1)NC(=O)[C@H](C)NC(=O)C(C)(C)NC(=O)[C@H](CCC(N)=O)NC(=O)[C@H](C)NC(=O)[C@H](CCCCNC(=O)COCCOCCNC(=O)COCCOCCNC(=O)CC[C@H](NC(=O)CCCCCCCCCCCCCCCCC(=O)O)C(=O)O)NC(=O)[C@H](CCCCN)NC(=O)[C@H](CC(=O)O)NC(=O)[C@H](CC(C)C)NC(=O)[C@H](CC(C)C)NC(=O)[C@@H](NC(=O)[C@H](CO)NC(=O)[C@H](Cc1ccc(O)cc1)NC(=O)[C@H](CC(=O)O)NC(=O)[C@H](CO)NC(=O)[C@@H](NC(=O)[C@](C)(Cc1ccccc1F)NC(=O)[C@@H](NC(=O)CNC(=O)[C@H](CCC(=O)O)NC(=O)C(C)(C)NC(=O)[C@@H](N)Cc1ccc(O)cc1)[C@@H](C)O)[C@@H](C)O)[C@@H](C)CC)[C@@H](C)CC)C(=O)N[C@@H](C)C(=O)NCC(=O)NCC(=O)N1CCC[C@H]1C(=O)N[C@@H](CO)C(=O)N[C@@H](CO)C(=O)NCC(N)=O` [Example 313] (H-Y[Aib]EGT[αMePhe(2-F)]TSDYSILLDKK([AEEA-AEEA-γGlu-C18 diacid])AQ[Aib]AFIEYLIAGGPSSG-NH2), the inhibition constant Ki on human GLP-1R stood at 0.815 nM; at human Gcg receptor, 27.6 nM; on human GIP receptor, 0.0261 nM. Besides, the EC50 stood at 0.0233 nM in assay [1] and 0.0388 nM in assay [2].

Take `CC[C@H](C)[C@H](NC(=O)[C@H](CC(C)C)NC(=O)[C@H](Cc1ccc(O)cc1)NC(=O)[C@H](CCC(=O)O)NC(=O)[C@@H](NC(=O)[C@H](Cc1ccccc1)NC(=O)[C@H](CCC(=O)O)NC(=O)C(C)(C)NC(=O)[C@H](CCC(N)=O)NC(=O)[C@H](C)NC(=O)[C@H](CCCCNC(=O)COCCOCCNC(=O)COCCOCCNC(=O)CC[C@H](NC(=O)CCCCCCCCCCCCCCCCC(=O)O)C(=O)O)NC(=O)[C@H](CCCCN)NC(=O)[C@H](CC(=O)O)NC(=O)[C@H](CC(C)C)NC(=O)[C@H](CC(C)C)NC(=O)[C@@H](NC(=O)[C@H](CO)NC(=O)[C@H](Cc1ccc(O)cc1)NC(=O)[C@H](CC(=O)O)NC(=O)[C@H](CO)NC(=O)[C@@H](NC(=O)[C@](C)(Cc1ccccc1F)NC(=O)[C@@H](NC(=O)CNC(=O)[C@H](CCC(=O)O)NC(=O)C(C)(C)NC(=O)[C@@H](N)Cc1ccc(O)cc1)[C@@H](C)O)[C@@H](C)O)[C@@H](C)CC)[C@@H](C)CC)C(=O)N[C@@H](C)C(=O)NCC(=O)NCC(=O)N1CCC[C@H]1C(=O)N[C@@H](CO)C(=O)N[C@@H](CO)C(=O)NCC(N)=O` [Example 314] (H-Y[Aib]EGT[αMePhe(2-F)]TSDYSILLDKK([AEEA-AEEA-γGlu-C18 diacid])AQ[Aib]EFIEYLIAGGPSSG-NH2): the Ki on human GLP-1R came out at 0.717 nM; at human Gcg receptor it was 116 nM; on human GIP receptor it was 0.027 nM. For the same compound, the EC50 in assay [1] and in assay [2] was 0.029 nM throughout.
